Laboratory results as given in ChEMBL document CHEMBL3044736, “Synthesis, characterization, solvatochromic properties, and antimicrobial evaluation of 5-acetyl-2-thioxo-dihydro-pyrimidine-4,6-dione-based chalcones” (2013).
Values after ≈ are worked out from the molar mass of the structure shown.

What was measured:
Type in all cases: functional
Penicillium [1] = assay: Antimicrobial activity against Penicillium wild strain assessed as diameter of growth inhibition zone at 250 ug/ml after 48-96 hr by agar cup diffusion method; settings: read-out: DIZ
Penicillium [2] = assay: Antimicrobial activity against Penicillium wild strain assessed as diameter of growth inhibition zone at 100 ug/ml after 48-96 hr by agar cup diffusion method; settings: read-out: DIZ
Trichophyton rubrum [3] = assay: Antimicrobial activity against Trichophyton rubrum MTCC 296 assessed as diameter of growth inhibition zone at 100 ug/ml after 48-96 hr by agar cup diffusion method; settings: read-out: DIZ
Aspergillus clavatus [4] = assay: Antimicrobial activity against Aspergillus clavatus MTCC 1323 assessed as diameter of growth inhibition zone at 100 ug/ml after 48-96 hr by agar cup diffusion method; settings: read-out: DIZ
Candida albicans [5] = assay: Antimicrobial activity against Candida albicans MTCC 227 assessed as diameter of growth inhibition zone at 100 ug/ml after 48-96 hr by agar cup diffusion method; settings: read-out: DIZ
Penicillium [6] = assay: Antimicrobial activity against Penicillium wild strain assessed as diameter of growth inhibition zone at 50 ug/ml after 48-96 hr by agar cup diffusion method; settings: read-out: DIZ
Trichophyton rubrum [7] = assay: Antimicrobial activity against Trichophyton rubrum MTCC 296 assessed as diameter of growth inhibition zone at 50 ug/ml after 48-96 hr by agar cup diffusion method; settings: read-out: DIZ
Aspergillus clavatus [8] = assay: Antimicrobial activity against Aspergillus clavatus MTCC 1323 assessed as diameter of growth inhibition zone at 50 ug/ml after 48-96 hr by agar cup diffusion method; settings: read-out: DIZ
Candida albicans [9] = assay: Antimicrobial activity against Candida albicans MTCC 227 assessed as diameter of growth inhibition zone at 50 ug/ml after 48-96 hr by agar cup diffusion method; settings: read-out: DIZ
Penicillium [10] = assay: Antimicrobial activity against Penicillium wild strain assessed as diameter of growth inhibition zone at 25 ug/ml after 48-96 hr by agar cup diffusion method; settings: read-out: DIZ
Trichophyton rubrum [11] = assay: Antimicrobial activity against Trichophyton rubrum MTCC 296 assessed as diameter of growth inhibition zone at 25 ug/ml after 48-96 hr by agar cup diffusion method; settings: read-out: DIZ
Aspergillus clavatus [12] = assay: Antimicrobial activity against Aspergillus clavatus MTCC 1323 assessed as diameter of growth inhibition zone at 25 ug/ml after 48-96 hr by agar cup diffusion method; settings: read-out: DIZ
Candida albicans [13] = assay: Antimicrobial activity against Candida albicans MTCC 227 assessed as diameter of growth inhibition zone at 25 ug/ml after 48-96 hr by agar cup diffusion method; settings: read-out: DIZ
Penicillium [14] = assay: Antimicrobial activity against Penicillium wild strain by agar cup diffusion method
Aspergillus clavatus [15] = assay: Antimicrobial activity against Aspergillus clavatus MTCC 1323 by agar cup diffusion method
Pseudomonas aeruginosa [16] = assay: Antimicrobial activity against Pseudomonas aeruginosa MTCC 1688 assessed as diameter of growth inhibition zone at 25 ug/ml after 18-24 hr by agar cup diffusion method; settings: read-out: DIZ
Escherichia coli [17] = assay: Antimicrobial activity against Escherichia coli MTCC 443 assessed as diameter of growth inhibition zone at 25 ug/ml after 18-24 hr by agar cup diffusion method; settings: read-out: DIZ
Staphylococcus aureus [18] = assay: Antimicrobial activity against Staphylococcus aureus MTCC 96 assessed as diameter of growth inhibition zone at 25 ug/ml after 18-24 hr by agar cup diffusion method; settings: read-out: DIZ
Streptococcus pyogenes [19] = assay: Antimicrobial activity against Streptococcus pyogenes MTCC 442 assessed as diameter of growth inhibition zone at 25 ug/ml after 18-24 hr by agar cup diffusion method; settings: read-out: DIZ
Klebsiella pneumoniae [20] = assay: Antimicrobial activity against Klebsiella pneumoniae MTCC 109 by agar cup diffusion method
Escherichia coli [21] = assay: Antimicrobial activity against Escherichia coli MTCC 443 by agar cup diffusion method
Pseudomonas aeruginosa [22] = assay: Antimicrobial activity against Pseudomonas aeruginosa MTCC 1688 by agar cup diffusion method
Staphylococcus aureus [23] = assay: Antimicrobial activity against Staphylococcus aureus MTCC 96 by agar cup diffusion method
Streptococcus pyogenes [24] = assay: Antimicrobial activity against Streptococcus pyogenes MTCC 442 by agar cup diffusion method
Trichophyton rubrum [25] = assay: Antimicrobial activity against Trichophyton rubrum MTCC 296 by agar cup diffusion method
Candida albicans [26] = assay: Antimicrobial activity against Candida albicans MTCC 227 by agar cup diffusion method
Klebsiella pneumoniae [27] = assay: Antimicrobial activity against Klebsiella pneumoniae MTCC 109 assessed as diameter of growth inhibition zone at 250 ug/ml after 18-24 hr by agar cup diffusion method; settings: read-out: DIZ
Pseudomonas aeruginosa [28] = assay: Antimicrobial activity against Pseudomonas aeruginosa MTCC 1688 assessed as diameter of growth inhibition zone at 250 ug/ml after 18-24 hr by agar cup diffusion method; settings: read-out: DIZ
Escherichia coli [29] = assay: Antimicrobial activity against Escherichia coli MTCC 443 assessed as diameter of growth inhibition zone at 250 ug/ml after 18-24 hr by agar cup diffusion method; settings: read-out: DIZ
Staphylococcus aureus [30] = assay: Antimicrobial activity against Staphylococcus aureus MTCC 96 assessed as diameter of growth inhibition zone at 250 ug/ml after 18-24 hr by agar cup diffusion method; settings: read-out: DIZ
Streptococcus pyogenes [31] = assay: Antimicrobial activity against Streptococcus pyogenes MTCC 442 assessed as diameter of growth inhibition zone at 250 ug/ml after 18-24 hr by agar cup diffusion method; settings: read-out: DIZ
Klebsiella pneumoniae [32] = assay: Antimicrobial activity against Klebsiella pneumoniae MTCC 109 assessed as diameter of growth inhibition zone at 100 ug/ml after 18-24 hr by agar cup diffusion method; settings: read-out: DIZ
Pseudomonas aeruginosa [33] = assay: Antimicrobial activity against Pseudomonas aeruginosa MTCC 1688 assessed as diameter of growth inhibition zone at 100 ug/ml after 18-24 hr by agar cup diffusion method; settings: read-out: DIZ
Escherichia coli [34] = assay: Antimicrobial activity against Escherichia coli MTCC 443 assessed as diameter of growth inhibition zone at 100 ug/ml after 18-24 hr by agar cup diffusion method; settings: read-out: DIZ
Staphylococcus aureus [35] = assay: Antimicrobial activity against Staphylococcus aureus MTCC 96 assessed as diameter of growth inhibition zone at 100 ug/ml after 18-24 hr by agar cup diffusion method; settings: read-out: DIZ
Streptococcus pyogenes [36] = assay: Antimicrobial activity against Streptococcus pyogenes MTCC 442 assessed as diameter of growth inhibition zone at 100 ug/ml after 18-24 hr by agar cup diffusion method; settings: read-out: DIZ
Klebsiella pneumoniae [37] = assay: Antimicrobial activity against Klebsiella pneumoniae MTCC 109 assessed as diameter of growth inhibition zone at 50 ug/ml after 18-24 hr by agar cup diffusion method; settings: read-out: DIZ
Pseudomonas aeruginosa [38] = assay: Antimicrobial activity against Pseudomonas aeruginosa MTCC 1688 assessed as diameter of growth inhibition zone at 50 ug/ml after 18-24 hr by agar cup diffusion method; settings: read-out: DIZ
Escherichia coli [39] = assay: Antimicrobial activity against Escherichia coli MTCC 443 assessed as diameter of growth inhibition zone at 50 ug/ml after 18-24 hr by agar cup diffusion method; settings: read-out: DIZ
Staphylococcus aureus [40] = assay: Antimicrobial activity against Staphylococcus aureus MTCC 96 assessed as diameter of growth inhibition zone at 50 ug/ml after 18-24 hr by agar cup diffusion method; settings: read-out: DIZ
Streptococcus pyogenes [41] = assay: Antimicrobial activity against Streptococcus pyogenes MTCC 442 assessed as diameter of growth inhibition zone at 50 ug/ml after 18-24 hr by agar cup diffusion method; settings: read-out: DIZ
Klebsiella pneumoniae [42] = assay: Antimicrobial activity against Klebsiella pneumoniae MTCC 109 assessed as diameter of growth inhibition zone at 25 ug/ml after 18-24 hr by agar cup diffusion method; settings: read-out: DIZ
Trichophyton rubrum [43] = assay: Antimicrobial activity against Trichophyton rubrum MTCC 296 assessed as diameter of growth inhibition zone at 250 ug/ml after 48-96 hr by agar cup diffusion method; settings: read-out: DIZ
Aspergillus clavatus [44] = assay: Antimicrobial activity against Aspergillus clavatus MTCC 1323 assessed as diameter of growth inhibition zone at 250 ug/ml after 48-96 hr by agar cup diffusion method; settings: read-out: DIZ
Candida albicans [45] = assay: Antimicrobial activity against Candida albicans MTCC 227 assessed as diameter of growth inhibition zone at 250 ug/ml after 48-96 hr by agar cup diffusion method; settings: read-out: DIZ

O=C(/C=C/c1ccccc1)C1C(=O)NC(=S)NC1=O
zone of inhibition at 250 µg/mL (Penicillium [1]): 24 mm
zone of inhibition at 100 µg/mL (Penicillium [2]): 22 mm
zone of inhibition at 100 µg/mL (Trichophyton rubrum [3]): 24 mm
zone of inhibition at 100 µg/mL (Aspergillus clavatus [4]): 21 mm
zone of inhibition at 100 µg/mL (Candida albicans [5]): 22 mm
zone of inhibition at 50 µg/mL (Penicillium [6]): 21 mm
zone of inhibition at 50 µg/mL (Trichophyton rubrum [7]): 24 mm
zone of inhibition at 50 µg/mL (Aspergillus clavatus [8]): 19 mm
zone of inhibition at 50 µg/mL (Candida albicans [9]): 18 mm
zone of inhibition at 25 µg/mL (Penicillium [10]): 19 mm
zone of inhibition at 25 µg/mL (Trichophyton rubrum [11]): 20 mm
zone of inhibition at 25 µg/mL (Aspergillus clavatus [12]): 18 mm
zone of inhibition at 25 µg/mL (Candida albicans [13]): 16 mm
MFC (Penicillium [14]): > 1000 µg/mL
MIC (Penicillium [14]): 1000 µg/mL (≈ 3650 µM)
MFC (Aspergillus clavatus [15]): 1000 µg/mL (≈ 3650 µM)
MIC (Aspergillus clavatus [15]): 1000 µg/mL (≈ 3650 µM)
zone of inhibition at 25 µg/mL (Pseudomonas aeruginosa [16]): 10 mm
zone of inhibition at 25 µg/mL (Escherichia coli [17]): 12 mm
zone of inhibition at 25 µg/mL (Staphylococcus aureus [18]): 10 mm
zone of inhibition at 25 µg/mL (Streptococcus pyogenes [19]): 12 mm
MBC (Klebsiella pneumoniae [20]): 250 µg/mL (≈ 911 µM)
MIC (Klebsiella pneumoniae [20]): 200 µg/mL (≈ 729 µM)
MBC (Escherichia coli [21]): 500 µg/mL (≈ 1820 µM)
MIC (Escherichia coli [21]): 250 µg/mL (≈ 911 µM)
MBC (Pseudomonas aeruginosa [22]): 250 µg/mL (≈ 911 µM)
MIC (Pseudomonas aeruginosa [22]): 250 µg/mL (≈ 911 µM)
MBC (Staphylococcus aureus [23]): 250 µg/mL (≈ 911 µM)
MIC (Staphylococcus aureus [23]): 250 µg/mL (≈ 911 µM)
MBC (Streptococcus pyogenes [24]): 500 µg/mL (≈ 1820 µM)
MIC (Streptococcus pyogenes [24]): 250 µg/mL (≈ 911 µM)
MFC (Trichophyton rubrum [25]): 1000 µg/mL (≈ 3650 µM)
MIC (Trichophyton rubrum [25]): 1000 µg/mL (≈ 3650 µM)
MFC (Candida albicans [26]): 1000 µg/mL (≈ 3650 µM)
MIC (Candida albicans [26]): 500 µg/mL (≈ 1820 µM)
zone of inhibition at 250 µg/mL (Klebsiella pneumoniae [27]): 17 mm
zone of inhibition at 250 µg/mL (Pseudomonas aeruginosa [28]): 17 mm
zone of inhibition at 250 µg/mL (Escherichia coli [29]): 17 mm
zone of inhibition at 250 µg/mL (Staphylococcus aureus [30]): 17 mm
zone of inhibition at 250 µg/mL (Streptococcus pyogenes [31]): 17 mm
zone of inhibition at 100 µg/mL (Klebsiella pneumoniae [32]): 14 mm
zone of inhibition at 100 µg/mL (Pseudomonas aeruginosa [33]): 15 mm
zone of inhibition at 100 µg/mL (Escherichia coli [34]): 15 mm
zone of inhibition at 100 µg/mL (Staphylococcus aureus [35]): 15 mm
zone of inhibition at 100 µg/mL (Streptococcus pyogenes [36]): 15 mm
zone of inhibition at 50 µg/mL (Klebsiella pneumoniae [37]): 12 mm
zone of inhibition at 50 µg/mL (Pseudomonas aeruginosa [38]): 13 mm
zone of inhibition at 50 µg/mL (Escherichia coli [39]): 15 mm
zone of inhibition at 50 µg/mL (Staphylococcus aureus [40]): 13 mm
zone of inhibition at 50 µg/mL (Streptococcus pyogenes [41]): 15 mm
zone of inhibition at 25 µg/mL (Klebsiella pneumoniae [42]): 10 mm
zone of inhibition at 250 µg/mL (Trichophyton rubrum [43]): 25 mm
zone of inhibition at 250 µg/mL (Aspergillus clavatus [44]): 24 mm
zone of inhibition at 250 µg/mL (Candida albicans [45]): 22 mm
